Among the test systems are CAKI-1 renal; HL-60(TB) leukemia; HOP-92 NSCLC; IGROV1 ovarian; NCI-H226 lung; NCI-H23 lung; NCI/ADR-RES ovarian; OVCAR-4 ovarian; OVCAR-8 ovarian; PC-3 prostate.
Experiment in all cases: NCI tumour cell line growth inhibition, 48 h

The source of these data is PubChem BioAssay (NCI).

Where “and” joins values, the source holds several entries; their conditions need not be identical. Identical values can stand only once.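 The compound was tested at five concentrations on cells cultured in 96-well plates, with a 48-hour exposure period. GI50 marks 50% less growth. TGI: total growth inhibition.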

As for `CCOC(=O)c1c(CN2CCCCC2)nc2ccc(Cl)cc2c1-c1ccccc1`, the GI50 is 24700 nM in the assay on CAKI-1 renal; 18100 nM in the assay on HL-60(TB) leukemia; 15.8 µM with HOP-92 NSCLC; 24 µM with IGROV1 ovarian; 20.7 µM in the assay on NCI-H226 lung; 24.2 µM in the assay on NCI-H23 lung. Further, the GI50 with NCI/ADR-RES ovarian is 19.6 µM; in the assay with OVCAR-4 ovarian, 37.7 µM; in the assay on OVCAR-8 ovarian, 35.4 µM; in the assay with PC-3 prostate, 23.8 µM. For the same compound, the TGI is 72.3 µM with CAKI-1 renal; 43.4 µM with HL-60(TB) leukemia; 39.9 µM in the assay with HOP-92 NSCLC; greater than 100 µM in the assay on IGROV1 ovarian; 40.4 µM in the assay on NCI-H226 lung; 64.1 µM with NCI-H23 lung. The TGI in the assay with NCI/ADR-RES ovarian is 58.2 µM; with OVCAR-4 ovarian, greater than 100 µM; with OVCAR-8 ovarian, greater than 100 µM; with PC-3 prostate, 93.7 µM.

In the case of `COc1cccc(/C=C\C(=O)c2ccccc2)c1`, the GI50 in the assay on CAKI-1 renal is 9660 nM; with HL-60(TB) leukemia it was 5980 nM; in the assay with HOP-92 NSCLC, 6.46 µM; in the assay on IGROV1 ovarian, 3.19 µM; in the assay on NCI-H226 lung, 16.6 µM; with NCI-H23 lung, 10.4 µM. Moreover, the GI50 in the assay on NCI/ADR-RES ovarian is 17.2 µM; with OVCAR-4 ovarian it was 10.8 µM; in the assay with OVCAR-8 ovarian it was 7.83 µM; in the assay on PC-3 prostate, 3.73 µM. Besides, the TGI was 24.8 µM with CAKI-1 renal; greater than 100 µM in the assay with HL-60(TB) leukemia; 26.2 µM in the assay on HOP-92 NSCLC; 21.2 µM with IGROV1 ovarian; 32.9 µM with NCI-H226 lung; 44.8 µM with NCI-H23 lung. The TGI in the assay on NCI/ADR-RES ovarian is greater than 100 µM; in the assay on OVCAR-4 ovarian, 27 µM; with OVCAR-8 ovarian it was 24.7 µM; with PC-3 prostate, 26.2 µM.

For `CCOC(=O)Nc1cc2c(c(N)n1)N=C(c1ccc(Cl)cc1Cl)CN2`, the TGI with CAKI-1 renal was 33.7 µM; in the assay on HL-60(TB) leukemia, 0.0585 µM; in the assay on HOP-92 NSCLC, 44.7 µM; with IGROV1 ovarian it was 34.3 µM; in the assay with NCI-H226 lung it was 18 µM; in the assay on NCI-H23 lung it was 27.5 µM. For the same compound, the TGI was 18.9 µM with NCI/ADR-RES ovarian, 39.7 µM in the assay with OVCAR-4 ovarian, 37.2 µM in the assay with OVCAR-8 ovarian and 14.9 µM in the assay on PC-3 prostate.

Regarding `COc1cc2c(cc1O)CCN[C@@]21CS[C@H]2c3c(OC(C)=O)c(C)c4c(c3C(COC1=O)N1C2C2NC(Cc3cc(C)c(OC)c(O)c32)[C@@H]1O)OCO4` (stereo partly specified), the GI50 was 0.000294 ng/mL in the assay with CAKI-1 renal; 0.000135 ng/mL in the assay with HOP-92 NSCLC; 0.000551 ng/mL and 4.5 ng/mL in the assay with IGROV1 ovarian; 4.5 ng/mL in the assay on NCI-H23 lung; 4.5 ng/mL in the assay on OVCAR-4 ovarian; 4.5 ng/mL with OVCAR-8 ovarian. Also, the TGI was 3.03 µM in the assay on CAKI-1 renal; > 100 µM and 8.2e-07 µg/mL in the assay with HL-60(TB) leukemia; 9.17 µM and 5.9e-07 µg/mL with HOP-92 NSCLC; 10.5 µM and 0.000362 µg/mL and 0.0045 µg/mL with IGROV1 ovarian; 0.000273 ng/mL in the assay on NCI-H226 lung; 298 nM and 1.3e-07 µg/mL and 0.0045 µg/mL with NCI-H23 lung. The TGI with NCI/ADR-RES ovarian is 0.0369 µM; in the assay with OVCAR-4 ovarian, < 10 nM and 0.0045 µg/mL; in the assay with OVCAR-8 ovarian it was < 10 nM and 0.472 µg/mL; in the assay on PC-3 prostate, less than 0.01 µM.

For the compound `COc1ccc(/C(=C(\c2ccccc2)[N+](=O)[O-])c2ccc(OCCN3CCCC3)cc2)cc1`, the GI50 was 2680 nM in the assay on CAKI-1 renal; 1940 nM in the assay on HL-60(TB) leukemia; 2.25 µM in the assay on HOP-92 NSCLC; 3.57 µM in the assay with IGROV1 ovarian; 4.37 µM in the assay with NCI-H226 lung; 4.94 µM in the assay on NCI-H23 lung. Further, the GI50 is 8.41 µM in the assay with NCI/ADR-RES ovarian, 4.66 µM in the assay with OVCAR-4 ovarian, 11.8 µM with OVCAR-8 ovarian and 4.53 µM with PC-3 prostate. The TGI turned out to be 9.87 µM in the assay on CAKI-1 renal; 4.6 µM with HL-60(TB) leukemia; 12 µM with HOP-92 NSCLC; 17.3 µM with IGROV1 ovarian; 18.2 µM in the assay on NCI-H226 lung; 18.6 µM in the assay on NCI-H23 lung. The TGI with NCI/ADR-RES ovarian was 24.2 µM; in the assay on OVCAR-4 ovarian it was 16.7 µM; in the assay on OVCAR-8 ovarian it was 31.7 µM; in the assay with PC-3 prostate, 16.6 µM.

For the compound `COc1cc(/C=N\Nc2ccccc2)ccc1OC(=O)c1ccccc1`, the GI50 in the assay on CAKI-1 renal was 2270 nM; in the assay with HL-60(TB) leukemia it was 544 nM; with HOP-92 NSCLC it was 12.2 µM; in the assay with IGROV1 ovarian, 2.76 µM; with NCI-H226 lung, 10.2 µM; with NCI-H23 lung, 15.8 µM. Moreover, the GI50 in the assay with NCI/ADR-RES ovarian was 0.903 µM; with OVCAR-4 ovarian it was 8.21 µM; in the assay with OVCAR-8 ovarian, 3.46 µM; in the assay with PC-3 prostate, 0.921 µM. Besides, the TGI in the assay on CAKI-1 renal was 33.7 µM; in the assay with HL-60(TB) leukemia, greater than 72.1 µM; with HOP-92 NSCLC, greater than 89 µM; in the assay with IGROV1 ovarian, greater than 100 µM; with NCI-H226 lung, greater than 77.6 µM; in the assay on NCI-H23 lung, greater than 100 µM. The TGI in the assay with NCI/ADR-RES ovarian is greater than 100 µM; with OVCAR-4 ovarian it was greater than 100 µM; with OVCAR-8 ovarian, greater than 100 µM; in the assay on PC-3 prostate it was 22.7 µM.

Consider `COc1cc2c3c(c4ccc(O)cc4c2cc1OC)[C@@H](O)[C@@H]1CCCN1C3`, for which the TGI was determined as 0.00285 µM with CAKI-1 renal; 4.74 µM in the assay with HL-60(TB) leukemia; 0.0191 µM in the assay on HOP-92 NSCLC; 0.00965 µM with IGROV1 ovarian; 0.0137 µM in the assay with NCI-H226 lung; 0.0558 µM in the assay with NCI-H23 lung. For the same compound, the TGI with NCI/ADR-RES ovarian is 0.532 µM; in the assay on OVCAR-4 ovarian, 0.00239 µM; in the assay with OVCAR-8 ovarian it was 0.48 µM; in the assay with PC-3 prostate it was 0.175 µM.

For the compound `CC1CCc2c(C(=O)Nc3ncc(Cc4cccc([N+](=O)[O-])c4)s3)csc2C1` (stereo unspecified), the GI50 is 431 nM in the assay with CAKI-1 renal; 324 nM in the assay on HL-60(TB) leukemia; 2.68 µM in the assay with HOP-92 NSCLC; 0.753 µM in the assay on IGROV1 ovarian; 1.96 µM in the assay with NCI-H226 lung; 1.83 µM in the assay on NCI-H23 lung. Besides, the GI50 is 0.46 µM in the assay on NCI/ADR-RES ovarian, 1.64 µM in the assay with OVCAR-4 ovarian, 1.42 µM in the assay on OVCAR-8 ovarian and 0.618 µM in the assay with PC-3 prostate. In addition, the TGI in the assay on CAKI-1 renal is greater than 100 µM; in the assay on HL-60(TB) leukemia, 3.8 µM; in the assay on HOP-92 NSCLC it was greater than 100 µM; in the assay on IGROV1 ovarian it was greater than 100 µM; with NCI-H226 lung, greater than 100 µM; with NCI-H23 lung, greater than 100 µM. The TGI with NCI/ADR-RES ovarian, in the assay on OVCAR-4 ovarian, in the assay on OVCAR-8 ovarian and in the assay with PC-3 prostate was greater than 100 µM each time.
